Legend:
[1] = molecular target: VvCYP76F14 ('Yanniang No.2', Full-Bodied type) (Vitis vinifera, UniProt A0A1B2ZBX8, E431G, form not given); settings: 1 mM NADPH; ATR1 reductase (VvCYP76F14:ATR1 2:1); 100 mM Na+/K+ phosphate pH 5.0; 25 °C; 1 h
[2] = molecular target: VvCYP76F14 ('Yanniang No.2', Full-Bodied type) (Vitis vinifera, UniProt A0A1B2ZBX8); settings: 1 mM NADPH; ATR1 reductase (VvCYP76F14:ATR1 2:1); 100 mM Na+/K+ phosphate pH 5.0; 25 °C; 1 h
[3] = molecular target: VvCYP76F14 ('Yanniang No.2', Full-Bodied type) (Vitis vinifera, UniProt A0A1B2ZBX8, I173L, form not given); settings: 1 mM NADPH; ATR1 reductase (VvCYP76F14:ATR1 2:1); 100 mM Na+/K+ phosphate pH 5.0; 25 °C; 1 h
[4] = molecular target: T1, VvCYP76F14 ('Marselan', Aromatic type) (Vitis vinifera, UniProt A0A1B2ZBX8); assay: substrate depletion by HPLC-HRMS; assay type: biochemical; settings: 1 mM NADPH; ATR1 reductase; pH 5.0; 25 °C; 1 h
T1 construct: 499 residues; natural allele, versus Yanniang No.2: N46S/N111K/R175Q/L222V/M264I/S286N/L298V/K325T/E378G/T380A/E383D/T386A; MBP fusion in E. coli, MBP cut off with TEV protease; reductase partner Arabidopsis ATR1

[5] = molecular target: VvCYP76F14 ('Yanniang No.2', Full-Bodied type) (Vitis vinifera, UniProt A0A1B2ZBX8, L351V, form not given); settings: 1 mM NADPH; ATR1 reductase (VvCYP76F14:ATR1 2:1); 100 mM Na+/K+ phosphate pH 5.0; 25 °C; 1 h
VvCYP76F14 ('Yanniang No.2', Full-Bodied type) (Vitis vinifera, UniProt A0A1B2ZBX8, L351V, form not given), sequence (A0A1B2ZBX8 entry or part of it L351V, form open): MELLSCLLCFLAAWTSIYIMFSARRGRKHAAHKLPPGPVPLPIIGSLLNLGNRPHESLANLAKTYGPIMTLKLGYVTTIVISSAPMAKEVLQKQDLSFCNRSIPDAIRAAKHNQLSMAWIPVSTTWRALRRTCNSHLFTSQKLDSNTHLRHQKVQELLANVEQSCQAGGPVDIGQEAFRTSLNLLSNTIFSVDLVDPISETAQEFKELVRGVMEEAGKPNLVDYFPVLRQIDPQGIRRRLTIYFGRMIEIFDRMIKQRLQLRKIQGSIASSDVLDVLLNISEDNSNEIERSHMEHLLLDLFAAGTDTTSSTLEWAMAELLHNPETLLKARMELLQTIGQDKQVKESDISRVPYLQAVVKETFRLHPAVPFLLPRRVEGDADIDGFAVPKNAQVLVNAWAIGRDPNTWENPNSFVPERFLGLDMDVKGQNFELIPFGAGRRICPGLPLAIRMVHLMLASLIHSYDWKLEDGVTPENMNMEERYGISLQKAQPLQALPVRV

VvCYP76F14 ('Yanniang No.2', Full-Bodied type) (Vitis vinifera, UniProt A0A1B2ZBX8), sequence (A0A1B2ZBX8 entry or part of it): as the sequence (A0A1B2ZBX8 entry or part of it L351V, form open) above, with V351L counted along it
VvCYP76F14 ('Yanniang No.2', Full-Bodied type) (Vitis vinifera, UniProt A0A1B2ZBX8, E431G, form not given), sequence (A0A1B2ZBX8 entry or part of it E431G, form open): as the sequence (A0A1B2ZBX8 entry or part of it L351V, form open) above, with V351L, E431G counted along it
VvCYP76F14 ('Yanniang No.2', Full-Bodied type) (Vitis vinifera, UniProt A0A1B2ZBX8, I173L, form not given), sequence (A0A1B2ZBX8 entry or part of it I173L, form open): as the sequence (A0A1B2ZBX8 entry or part of it L351V, form open) above, with I173L, V351L counted along it
T1 sequence (A0A1B2ZBX8 entry or part of it): as the sequence (A0A1B2ZBX8 entry or part of it L351V, form open) above, with V351L counted along it

SMILES | Km [1] [µM] | Km [2] [µM] | Km [3] [µM] | specific activity [4] | Km [5] [µM]
C=CC(C)(O)CC/C=C(\C)CO (centres unmarked) [(E)-8-hydroxylinalool] | 65 ± 6.98 | 29.1 ± 2.66 | 76.7 ± 7.22 | (E)-8-hydroxylinalool (dehydrogenation), and (E)-8-oxolinalool (carboxylation) as substrates | 30.6 ± 2.85
C=CC(C)(O)CC/C=C(\C)C=O (centres unmarked) [(E)-8-oxolinalool] | 88.5 ± 9.85 | 41.4 ± 3.93 | 90.8 ± 12.2 | – | 41.9 ± 5.24
C=CC(C)(O)CCC=C(C)C (centres unmarked) [linalool] | 144 ± 15.6 | 66.2 ± 5.63 | 151 ± 14.6 | All three VvCYP76F14s demonstrated catalytic activity in reactions utilizing linalool (hydroxylation) | 67.6 ± 6.94

Source: PMC11502375, “Cytochrome P450 VvCYP76F14 dominates the production of wine bouquet precursors in wine grapes” (Frontiers in Plant Science, 2024)
